One assay has as its target T1, Interleukin-33 (Homo sapiens, UniProt O95760).
T1 sequence (O95760 whole entry): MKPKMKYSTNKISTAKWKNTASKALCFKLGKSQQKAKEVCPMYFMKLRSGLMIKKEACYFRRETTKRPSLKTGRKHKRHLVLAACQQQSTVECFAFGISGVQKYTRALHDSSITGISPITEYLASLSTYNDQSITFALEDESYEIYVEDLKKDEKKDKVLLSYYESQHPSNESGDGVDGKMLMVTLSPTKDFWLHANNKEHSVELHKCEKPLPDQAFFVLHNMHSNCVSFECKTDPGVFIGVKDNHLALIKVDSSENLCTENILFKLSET
In words: Inhibition of human IL-33 incubated for 1 hrs by AlphaLISA assay. Background: Alpha assays give light when donor and acceptor beads are brought close together.

Assay [1] in a line: (§1) Binding affinity to gp130 (unknown origin) assessed as fold increase. More on the design: species or system Homo sapiens.
For a further assay, the species on record is Homo sapiens. Described as §1.
In the next assay the target is T2, Interleukin-18 (Homo sapiens, UniProt Q14116).
T2 sequence (Q14116 whole entry): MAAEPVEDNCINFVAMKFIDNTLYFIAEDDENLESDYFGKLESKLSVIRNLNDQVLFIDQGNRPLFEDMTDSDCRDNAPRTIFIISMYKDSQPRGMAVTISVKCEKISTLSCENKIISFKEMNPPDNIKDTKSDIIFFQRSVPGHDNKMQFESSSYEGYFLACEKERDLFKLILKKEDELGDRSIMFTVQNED
In words: Inhibition of human IL-18 expressed in Escherichia coli BL21(DE3) cells incubated for 18 hrs.

For assay [2], the target named is T3, Interleukin-4 (Homo sapiens, UniProt P05112).
T3 sequence (P05112 whole entry): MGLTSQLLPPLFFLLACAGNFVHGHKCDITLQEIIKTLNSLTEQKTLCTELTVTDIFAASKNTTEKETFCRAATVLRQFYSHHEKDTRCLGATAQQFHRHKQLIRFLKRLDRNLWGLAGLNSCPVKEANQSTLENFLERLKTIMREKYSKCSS
In words: Inhibition of IL-4 (unknown origin) assessed as dissociation constant by SPR analysis. (SPR reads the build-up and loss of mass on a sensor chip optically.)

In assay [3] the target is T3, Interleukin-4. In words: Inhibition of IL-4 (unknown origin) in human THP-1 cells assessed as inhibition of STAT6 phosphorylation by HEK-Blue assay. Type of assay: cell-based.
The target in assay [4] is T4, Interleukin-2 receptor subunit alpha (Homo sapiens, UniProt P01589).
T4 sequence (P01589 whole entry): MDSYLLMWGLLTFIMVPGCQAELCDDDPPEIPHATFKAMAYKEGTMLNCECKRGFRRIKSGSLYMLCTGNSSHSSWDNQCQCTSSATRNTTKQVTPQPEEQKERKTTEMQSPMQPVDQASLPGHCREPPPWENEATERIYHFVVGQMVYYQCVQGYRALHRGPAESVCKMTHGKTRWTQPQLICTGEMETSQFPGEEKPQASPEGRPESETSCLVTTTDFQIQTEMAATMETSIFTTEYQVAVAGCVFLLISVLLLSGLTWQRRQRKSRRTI
In words: Inhibition of IL-2R alpha (unknown origin).

For assay [5], the target named is T5, Interleukin-1 receptor type 1 (Homo sapiens, UniProt P14778).
T5 sequence (P14778 whole entry): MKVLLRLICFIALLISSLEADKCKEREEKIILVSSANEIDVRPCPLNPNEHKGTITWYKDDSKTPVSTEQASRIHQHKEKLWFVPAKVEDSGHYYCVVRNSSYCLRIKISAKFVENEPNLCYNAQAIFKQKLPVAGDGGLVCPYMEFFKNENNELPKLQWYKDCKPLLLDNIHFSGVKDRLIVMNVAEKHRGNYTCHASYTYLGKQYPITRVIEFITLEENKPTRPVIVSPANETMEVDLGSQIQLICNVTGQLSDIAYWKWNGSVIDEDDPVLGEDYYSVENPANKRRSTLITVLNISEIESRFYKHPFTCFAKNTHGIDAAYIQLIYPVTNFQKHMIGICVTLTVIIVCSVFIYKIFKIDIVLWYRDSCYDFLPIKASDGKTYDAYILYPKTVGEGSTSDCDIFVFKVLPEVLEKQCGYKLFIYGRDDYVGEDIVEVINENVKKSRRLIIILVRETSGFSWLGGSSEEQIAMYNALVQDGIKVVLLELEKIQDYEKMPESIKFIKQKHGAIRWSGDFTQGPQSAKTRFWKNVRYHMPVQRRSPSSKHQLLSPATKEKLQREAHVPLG
In words: Inhibition of human IL1-R1 assessed as dissociation constant incubated for 5 mins by SPR analysis.

Assay [6] can be described thus: Inhibition of human CXCL1 protein secretion in IL-36 gamma-stimulated HaCaT cells. It is filed as cell-based.
The nature of assay [7]: Inhibition of OSMR/gp130 (unknown origin) by SPR analysis. More on the design: species or system Homo sapiens.
The nature of assay [8]: Inhibition of IL-6/gp130 (unknown origin) by SPR analysis. More on the design: species or system Homo sapiens.
Assay [9] can be described thus: Binding affinity to gp130 (unknown origin) assessed as dissociation constant by SPR analysis. More on the design: species or system Homo sapiens.

Structures are written as SMILES.

As for `COc1ccc([C@H]2CCCN2Cc2ccc(-c3ccccc3[N+](=O)[O-])o2)cc1`, 43 µM corresponded to half-maximal inhibition on Interleukin-33 (IC50).
`CCCCc1ccc(O)c(Cn2cc(CC(O)COC(=O)c3ccccc3)c3ccccc32)c1O` (stereo unspecified): in assay [1], the Kd worked out at 29 µM. For the same molecule, the fold change (FC) in the assay filed under Homo sapiens is 5.
With `N#Cc1ccc(NC(=O)Nc2ccc(Oc3ccc(NC(=O)Nc4ccc(C#N)cc4)cc3)cc2)cc1`, at Interleukin-18, the EC50 worked out at 0.25 µM.
`COc1ccc([C@@H]2CCCN2Cc2ccc(-c3ccccc3[N+](=O)[O-])o2)cc1` had a 50% inhibitory concentration (IC50) against Interleukin-33 of 42 µM.
On to `N#Cc1c(-c2ccc(O)c(O)c2)cc(-c2ccc(F)cc2)nc1N`, for which the Kd on Interleukin-4 [2] was 1.8 µM. The EC50 at Interleukin-4 [3] was found to be 3.1 µM.
In turn, `COC(=O)[C@H](Cc1ccc(C#Cc2ccccc2)cc1)NC(=O)C[C@H]1CCCN(C(=N)N)C1` yielded a half-maximal inhibitory concentration (IC50) in assay [4] of 3 µM.
Regarding `NCCc1c(-c2ccccc2)n(-c2ccccc2)c2ccccc12`, the equilibrium dissociation constant (Kd) in assay [5] came out at 316 µM.
On to `COC(c1ccccc1)(c1ccccc1)[C@H](Oc1nc(C)cc(-c2ccc(C)c(N)c2)n1)C(=O)O`, for which, in [6], 0.031 µM corresponded to half-maximal inhibition (IC50).
In the case of `Brc1ccc(Nc2nc(-c3ccccc3)cs2)cc1`, the Kd in [7] stood at 5.7 µM; in assay [8] it was 2.9 µM.
With `CCCCc1ccc(OC)c(CN2c3ccccc3[C@]3(O)C[C@@H](COC(=O)c4ccccc4)O[C@H]23)c1OC`, the fold change (FC) in the assay filed under Homo sapiens came out at 5.
On to `CCCCc1ccc(O)c(CN2c3ccccc3[C@]3(O)C[C@@H](COC(=O)c4ccccc4)O[C@H]23)c1O`, for which, in assay [1], the equilibrium dissociation constant (Kd) was 36.9 µM. Also, in the assay listed under Homo sapiens, the fold change (FC) was found to be 5.
For `CCCCC1=C(C)C(=O)[C@@](C)(CN2c3ccccc3[C@]3(O)CCO[C@H]23)C1=O`, the dissociation constant (Kd) in assay [9] was determined as 288 µM.

A word on the IC50: it is the concentration at which inhibition is half-maximal. A lower IC50 goes with greater potency in that assay. What is called Kd is the concentration at which binding is half-saturated. The EC50 is the concentration giving half of the maximal effect.
